The source made the active and inactive calls. The calls are words filed in the database; no cut-off is given here.
Key:
[1] = tested on: Nucleic Acid; assay: Inhibition of microRNA-21 in human HeLa cells assessed as reduction in microRNA-21 expression at 10 uM incubated for 24 hrs by stem-loop RT-PCR method; format: cell-based
[2] = tested on: Nucleic Acid; assay: Inhibition of microRNA-21 in human HeLa cells assessed as reduction in microRNA-21 expression at 10 uM incubated for 6 to 48 hrs by stem-loop RT-PCR method; format: cell-based
[3] = tested on: Nucleic Acid; assay: Inhibition of microRNA-21 in human HeLa cells assessed as reduction in microRNA-21 expression at 2.5 to 20 uM incubated for 24 hrs by stem-loop RT-PCR method; format: cell-based
[4] = tested on: Nucleic Acid; assay: Inhibition of microRNA-21 in human HeLa cells assessed as increase in PDCD4 protein expression at 10 uM incubated for 48 hrs by Western blot method; format: cell-based
[5] = tested on: HeLa; assay: Induction of apoptosis in human HeLa cells assessed as viable cells level at 10 uM incubated for 48 hrs by Annexin V-FITC and propidium iodide staining based flow cytometry (reference value: 93.7%); format: functional
[6] = tested on: HeLa; assay: Induction of apoptosis in human HeLa cells assessed as early apoptotic cells level at 10 uM incubated for 48 hrs by Annexin V-FITC and propidium iodide staining based flow cytometry (reference value: 2.9%); format: functional
[7] = tested on: HeLa; assay: Induction of apoptosis in human HeLa cells assessed as late apoptotic cells level at 10 uM incubated for 48 hrs by Annexin V-FITC and propidium iodide staining based flow cytometry (reference value: 2.2%); format: functional
[8] = tested on: HeLa; assay: Induction of apoptosis in human HeLa cells assessed as necrotic cells level at 10 uM incubated for 48 hrs by Annexin V-FITC and propidium iodide staining based flow cytometry (reference value: 1.2%); format: functional
[9] = tested on: HeLa; assay: Induction of apoptosis in human HeLa cells assessed as viable cells level at 10 uM incubated for 48 hrs in presence of 50 uM H2O2 by Annexin V-FITC and propidium iodide staining based flow cytometry (reference value: 93.7%); format: functional
[10] = tested on: HeLa; assay: Induction of apoptosis in human HeLa cells assessed as early apoptotic cells level at 10 uM incubated for 48 hrs in presence of 50 uM H2O2 by Annexin V-FITC and propidium iodide staining based flow cytometry (reference value: 2.9%); format: functional
[11] = tested on: HeLa; assay: Induction of apoptosis in human HeLa cells assessed as late apoptotic cells level at 10 uM incubated for 48 hrs in presence of 50 uM H2O2 by Annexin V-FITC and propidium iodide staining based flow cytometry (reference value: 2.2%); format: functional
[12] = tested on: HeLa; assay: Induction of apoptosis in human HeLa cells assessed as necrotic cells level at 10 uM incubated for 48 hrs in presence of 50 uM H2O2 by Annexin V-FITC and propidium iodide staining based flow cytometry (reference value: 1.2%); format: functional
[13] = tested on: U-87 MG; assay: Induction of apoptosis in human U87MG cells assessed as viable cells level at 10 uM incubated for 48 hrs by Annexin V-FITC and propidium iodide staining based flow cytometry (reference value: 94.1%); format: functional, U-87MG ATCC
[14] = tested on: U-87 MG; assay: Induction of apoptosis in human U87MG cells assessed as early apoptotic cells level at 10 uM incubated for 48 hrs by Annexin V-FITC and propidium iodide staining based flow cytometry (reference value: 2%); format: functional, U-87MG ATCC
[15] = tested on: U-87 MG; assay: Induction of apoptosis in human U87MG cells assessed as late apoptotic cells level at 10 uM incubated for 48 hrs by Annexin V-FITC and propidium iodide staining based flow cytometry (reference value: 2.6%); format: functional, U-87MG ATCC
[16] = tested on: U-87 MG; assay: Induction of apoptosis in human U87MG cells assessed as necrotic cells level at 10 uM incubated for 48 hrs by Annexin V-FITC and propidium iodide staining based flow cytometry (reference value: 1.3%); format: functional, U-87MG ATCC
[17] = tested on: U-87 MG; assay: Induction of apoptosis in human U87MG cells assessed as viable cells level at 10 uM incubated for 48 hrs in presence of 50 uM H2O2 by Annexin V-FITC and propidium iodide staining based flow cytometry (reference value: 94.1%); format: functional, U-87MG ATCC
[18] = tested on: U-87 MG; assay: Induction of apoptosis in human U87MG cells assessed as early apoptotic cells level at 10 uM incubated for 48 hrs in presence of 50 uM H2O2 by Annexin V-FITC and propidium iodide staining based flow cytometry (reference value: 2%); format: functional, U-87MG ATCC
[19] = tested on: U-87 MG; assay: Induction of apoptosis in human U87MG cells assessed as late apoptotic cells level at 10 uM incubated for 48 hrs in presence of 50 uM H2O2 by Annexin V-FITC and propidium iodide staining based flow cytometry (reference value: 2.6%); format: functional, U-87MG ATCC
[20] = tested on: U-87 MG; assay: Induction of apoptosis in human U87MG cells assessed as necrotic cells level at 10 uM incubated for 48 hrs in presence of 50 uM H2O2 by Annexin V-FITC and propidium iodide staining based flow cytometry (reference value: 1.3%); format: functional, U-87MG ATCC
[21] = tested on: HeLa; assay: Inhibition of cell proliferation of human HeLa cells assessed as induction of retardation of cell proliferation at 10 uM incubated for 48 hrs by CFSE staining based FACS method; format: functional
[22] = tested on: HeLa; assay: Inhibition of cell proliferation of human HeLa cells assessed as induction of retardation of cell proliferation at 10 uM incubated for 48 hrs in presence of 50 uM H2O2 by CFSE staining based FACS method; format: functional
[23] = tested on: U-87 MG; assay: Inhibition of cell proliferation of human U87MG cells assessed as induction of retardation of cell proliferation at 10 uM incubated for 48 hrs by CFSE staining based FACS method; format: functional; conditions: U-87MG ATCC
[24] = tested on: U-87 MG; assay: Inhibition of cell proliferation of human U87MG cells assessed as induction of retardation of cell proliferation at 10 uM incubated for 48 hrs in presence of 50 uM H2O2 by CFSE staining based FACS method; format: functional; conditions: U-87MG ATCC
[25] = tested on: U-87 MG; assay: Inhibition of cell proliferation of human U87MG cells assessed as time required for cell doubling by measuring mean fluorescence intensity at 10 uM incubated for 48 hrs by CFSE staining based FACS method; format: functional; conditions: U-87MG ATCC
[26] = tested on: U-87 MG; assay: Inhibition of cell proliferation of human U87MG cells assessed as time required for cell doubling by measuring mean fluorescence intensity at 10 uM incubated for 48 hrs in presence of 50 uM H2O2 by CFSE staining based FACS method; format: functional; conditions: U-87MG ATCC
[27] = tested on: HeLa; assay: Inhibition of let-7a miRNA in human HeLa cells assessed as reduction in microRNA-21 expression at 10 uM incubated for 24 hrs by RT-qPCR method; format: cell-based
[28] = tested on: Nucleic Acid; assay: Inhibition of microRNA-25 in human HeLa cells assessed as reduction in microRNA-21 expression at 10 uM incubated for 24 hrs by RT-qPCR method; format: cell-based
[29] = tested on: Nucleic Acid; assay: Inhibition of microRNA-26 in human HeLa cells assessed as reduction in microRNA-21 expression at 10 uM incubated for 24 hrs by RT-qPCR method; format: cell-based
[30] = tested on: Nucleic Acid; assay: Inhibition of microRNA-126 in human HeLa cells assessed as reduction in microRNA-21 expression at 10 uM incubated for 24 hrs by RT-qPCR method; format: cell-based
[31] = tested on: Nucleic Acid; assay: Inhibition of microRNA-133 in human HeLa cells assessed as reduction in microRNA-21 expression at 10 uM incubated for 24 hrs by RT-qPCR method; format: cell-based
[32] = tested on: Nucleic Acid; assay: Inhibition of microRNA-143 in human HeLa cells assessed as reduction in microRNA-21 expression at 10 uM incubated for 24 hrs by RT-qPCR method; format: cell-based
[33] = tested on: Nucleic Acid; assay: Inhibition of microRNA-145 in human HeLa cells assessed as reduction in microRNA-21 expression at 10 uM incubated for 24 hrs by RT-qPCR method; format: cell-based
[34] = tested on: Nucleic Acid; assay: Inhibition of microRNA-146 in human HeLa cells assessed as reduction in microRNA-21 expression at 10 uM incubated for 24 hrs by RT-qPCR method; format: cell-based
[35] = tested on: Nucleic Acid; assay: Inhibition of microRNA-148 in human HeLa cells assessed as reduction in microRNA-21 expression at 10 uM incubated for 24 hrs by RT-qPCR method; format: cell-based
[36] = tested on: Nucleic Acid; assay: Inhibition of microRNA-152 in human HeLa cells assessed as reduction in microRNA-21 expression at 10 uM incubated for 24 hrs by RT-qPCR method; format: cell-based
[37] = tested on: Nucleic Acid; assay: Inhibition of microRNA-195 in human HeLa cells assessed as reduction in microRNA-21 expression at 10 uM incubated for 24 hrs by RT-qPCR method; format: cell-based
[38] = tested on: HeLa; assay: Effect on universal miRNA biosynthesis pathway-related gene expression in human HeLa assessed as DROSHA gene expression at 10 uM incubated for 24 hrs by RT-qPCR method; format: cell-based
[39] = tested on: HeLa; assay: Effect on universal miRNA biosynthesis pathway-related gene expression in human HeLa assessed as TARBP2 gene expression at 10 uM incubated for 24 hrs by RT-qPCR method; format: ADME, cell-based
[40] = tested on: HeLa; assay: Effect on universal miRNA biosynthesis pathway-related gene expression in human HeLa assessed as DGCR8 gene expression at 10 uM incubated for 24 hrs by RT-qPCR method; format: cell-based
[41] = tested on: HeLa; assay: Effect on universal miRNA biosynthesis pathway-related gene expression in human HeLa assessed as XPO5 gene expression at 10 uM incubated for 24 hrs by RT-qPCR method; format: cell-based
[42] = tested on: HeLa; assay: Effect on universal miRNA biosynthesis pathway-related gene expression in human HeLa assessed as DICER1 gene expression at 10 uM incubated for 24 hrs by RT-qPCR method; format: cell-based
[43] = tested on: HeLa; assay: Effect on universal miRNA biosynthesis pathway-related gene expression in human HeLa assessed as AGO2 gene expression at 10 uM incubated for 24 hrs by RT-qPCR method; format: cell-based

## C#CCNC(=O)c1ccc(NC(=O)c2cccc(I)c2)cc1
[1]
  inhibition: Active

## C#CCNC(=O)c1ccc(NC(=O)c2ccccc2Br)cc1
[1]
  inhibition: Active
[2]
  inhibition: Active
[3]
  inhibition: Active
[4]
  inhibition: Active
[5]
  Activity: 91.6%
[6]
  Activity: 3.5%
[7]
  Activity: 3.4%
[8]
  Activity: 1.5%
[9]
  Activity: 67.5%
[10]
  Activity: 8.9%
[11]
  Activity: 19.1%
[12]
  Activity: 4.5%
[13]
  Activity: 91.9%
[14]
  Activity: 2.3%
[15]
  Activity: 4%
[16]
  Activity: 1.7%
[17]
  Activity: 82.4%
[18]
  Activity: 3.9%
[19]
  Activity: 10.2%
[20]
  Activity: 3.5%
[21]
  inhibition: Active
[22]
  inhibition: Active
[23]
  inhibition: Active
[24]
  inhibition: Active
[25]
  inhibition: Active
[26]
  inhibition: Active
[27]
  inhibition: inactive
[28]
  inhibition: inactive
[29]
  inhibition: inactive
[30]
  inhibition: inactive
[31]
  inhibition: inactive
[32]
  inhibition: inactive
[33]
  inhibition: inactive
[34]
  inhibition: inactive
[35]
  inhibition: inactive
[36]
  inhibition: inactive
[37]
  inhibition: inactive
[38]
  Activity: Non-toxic
[39]
  Activity: Non-toxic
[40]
  Activity: Non-toxic
[41]
  Activity: Non-toxic
[42]
  Activity: Non-toxic
[43]
  Activity: Non-toxic

## C#CCNC(=O)c1ccc(NC(=O)c2cc(OC)ccc2OC)cc1
[1]
  inhibition: Active

## C#CCNC(=O)c1ccc(NC(=O)c2cccnc2)cc1
[1]
  inhibition: Active

## C#CCNC(=O)c1ccc(/N=N/c2ccccc2)cc1
[1]
  inhibition: Active
[4]
  inhibition: Active

## C#CCNC(=O)c1ccc(NC(=O)c2ccc(OC)cc2OC)cc1
[1]
  inhibition: Active

## C#CCNC(=O)c1ccc(NC(=O)c2ccc(OC)c(OCc3ccccc3)c2)cc1
[1]
  inhibition: Active

— ChEMBL document CHEMBL3611994, “Discovery of 4-benzoylamino-N-(prop-2-yn-1-yl)benzamides as novel microRNA-21 inhibitors” (Bioorg Med Chem, 2015)
